Assay results from patent US20230416304A1, “TETRAPEPTIDE AND COMPOSITIONS COMPRISING TETRAPEPTIDES” (THE BOOTS COMPANY PLC, priority 2020, published 2023).
One block for each substance: values may come before it. The star is where a group is joined. Palmitoyl = CCCCCCCCCCCCCCCC(=O)*

Columns and labels:
[1] = system: Collagen I (PIP); experiment: ELISA of Collagen I (PIP) in culture supernatant of human dermal fibroblasts; type: cell-based; settings: HDFs, 72 hours, ELISA weighted to viable cells
Method: (§1) An ELISA is an immunological assay commonly used to measure presence and abundance of a specific proteins (antibodies, antigens, proteins and glycoproteins) in biological samples. In this case ELISAs are being used to quantify the expression of dermal extracellular proteins collagen-1, decorin and fibronectin. The quantity of collagen I is evaluated via the quantity of PIP (“carboxU-terminal pro-peptide of procollagen type I”) which is a peptide fragment resulting from the enzymatic degradation of procollagen present outside the fibroblast in the culture supernatant medium.
(§2) For all experiments, the control liquid stock was prepared by dissolving the powdered peptides in DMSO (Dimethyl Sulfoxide solvent). Peptide powders were dissolved in DMSO at recommended part per million concentrations and then further diluted in the cell culture medium and combined to obtain the desired peptide ratio.
(§3) Normal human dermal fibroblasts cells (HDFs) were cultured in contact with the tetrapeptides of the present invention, or composition without the peptide (negative control), for 72 hours. Thereafter the cultured supernatants were removed, and the quantity of dermal extracellular proteins determined using an ELISA assay for the protein of interest. For the ELISA quantification, cell viability was calculated using Hoechst staining allowing the quantity of dermal proteins to be weighted to the number of viable cells.
The quantity of Collagen I is evaluated via the quantity of PIP (“carboxU-terminal pro-peptide of procollagen type I”) which is a peptide fragment resulting from the enzymatic degradation of procollagen present outside the fibroblast in the culture supernatant medium.
(§4) The effect of LSXX tetrapeptides on ECM protein expression by fibroblasts as measured by ELISA (columns 1 to 3) versus a tetrapeptide not conforming to the LSXX structure (column 4) are presented in the table below (table 1). Results are expressed as % increase versus the negative control.

[2] = system: Fibronectin; experiment: ELISA of fibronectin in culture supernatant of human dermal fibroblasts; type: cell-based; settings: HDFs, 72 hours, ELISA weighted to viable cells
Method: as §1, §2, §3, §4

[3] = system: Decorin; experiment: ELISA of decorin in culture supernatant of human dermal fibroblasts; type: cell-based; settings: HDFs, 72 hours, ELISA weighted to viable cells
Method: as §1, §2, §3, §4

[4] = system: Fibrillin-1; experiment: Immunofluorescence of Fibrillin-1 expression by HDF cells; type: cell-based, human; settings: HDFs, 5 days
Method: Immunofluorescence relies on the use of antibodies to label a specific protein with a fluorescent dye such as fluorescein isothiocyanate (FITC). In the following experiments, indirect immunofluorescence is used where a primary antibody first recognises and attaches to the specific protein, in this case fibrillin-1, and then a secondary antibody conjugated with FITC directed against the primary antibody is used for detection.
as §2
Fibrillin-1 expression was determined using immunofluorescence. Primary human dermal fibroblast (HDF) cells were purchased from Promo Cell and came from a donor. Cells were grown in wells of 96 well black walled clear bottomed plates (Peirce, Thermo Fisher). Cells were cultured in HDF media (PromoCell) supplemented with Basic Fibroblast Growth Factor (recombinant human), 1 ng/ml and Insulin 5 μg/ml. Cells were cultured for 5 days in the presence of the tetrapeptides, changing media and peptides every 48 hours, followed by immunofluorescence assessment. At the time of treatment cells were at passage 3-4. After 5 days the media was discarded, and cells fixed with methanol. The Fibrillin-1 fibre formation was probed using primary Fibrillin-1 monoclonal antibody (11C1.3; mouse monoclonal antibody (Thermo Fisher) 1 in 100 dilution overnight) designed to detect Fibrillin-1 protein. The Fibrillin-1 fibre formation was then probed with a secondary Goat anti-mouse IgG Thermo Fisher (1 part antibody in 1000 buffer solution for 1 hour) which includes a fluorescent tag designed to reveal the primary antibody binding pattern.
The antibody binding to Fibrillin-1 fibres was visualised using a Nikon Eclipse 100 microscope fluorescence setting using an excitation lens for fluorescein isothiocyanate (FITC). Images were taken using 6 second UV exposure. ImageJ software was used to quantify the Fibrillin-1 fibre abundance and coverage in each image using a threshold of 235 measuring the fibre density.
Results are expressed as a percentage increase in fibrillin abundance compared to untreated control.
Fibrillin-1 expression by HDF cells treated with tetrapeptides conforming to the LSXX structure (Pal-LSPG-OH, Pal-LSPD-OH and Pal-LSVD-OH) and a tetrapeptide not conforming to the LSXX structure (Pal-GYIL-OH), are presented in the table below (table 2). The peptide concentration used offered the highest yield of Fibrillin-1 production.

[5] = system: SOD1; experiment: LC-MS/MS relative protein abundance in HDF secretome/matrisome: SOD1; type: cell-based, human; settings: HDFs, peptide 8 ppm, seven-day culture, secretome + matrisome
Method: (§5) Following incubation with the peptides, liquid chromatography tandem mass spectrometry (LC-MS/MS) was used to quantify the relative abundance differences between proteins identified in the secretome/matrisome, versus an untreated control. HDFs from a donor, plated at 50,000 cells per well, were cultured with either peptide dissolved in cell culture media to achieve a final concentration of 8 ppm or with media without any peptide as a negative control. Treated and control cells were tested in triplicate. The cells were cultured as normal for five days in serum-supplemented media and then for a further two days in serum-free media (seven-day culture in total). The cell media containing the secretome (the proteins secreted by the cell) and the ECM, decellularized by incubation with EDTA (ethylenediaminetetraacetic acid), containing the matrisome (the collection of ECM associated proteins) were collected. The combined secretome and the matrisome compartments were subsequently analysed by LC-MS/MS using the following protocol.
(§6) Proteins were denatured (in urea), reduced (in dithiothreitol) and mechanically disassociated (using ultrasonication) prior to overnight digestion with trypsin (SMART Digest™ trypsin kit; Thermo Fisher). After digestion, samples were cleaned of contaminants up by removal of organic molecules and surfactants using biphasic extraction and desalted using OLIGO™ R3 Reversed Phase Resin (Thermo Fisher).
(§7) Samples (200 ng) were ran on an UltiMate® 3000 Rapid Separation Liquid Chromatographer coupled to a Q Exactive™ Hybrid Quadrupole-Orbitrap™ Mass Spectrometer for 90-minutes per sample run. Spectral data was searched again the Uniprot Human proteome database using Mascot v2.5.1. Subsequent protein identification and data-dependent quantification was performed using Progenesis QI. Normalised protein abundances were compared between each peptide treatment and control. Statistical analysis was performed within Progenesis QI using a between sample ANOVA.
(§8) The mass spectrometry data for each peptide is shown below in table 3 and FIG. 1. Changes in protein synthesis abundance due to each peptide are described below, including changes to specific proteins and the protein families they belong to (table 3). […] These protein families were as follows: antioxidants, cell stress proteins, ECM cleaving enzymes and ECM adhesion proteins; functional protein families all with a potentially important role in dermal repair and remodelling.

[6] = system: PRDX4; experiment: LC-MS/MS relative protein abundance in HDF secretome/matrisome: PRDX4; type: cell-based, human; settings: HDFs, peptide 8 ppm, seven-day culture, secretome + matrisome
Method: as §5, §6, §7, §8

[7] = system: HSP90B1; experiment: LC-MS/MS relative protein abundance in HDF secretome/matrisome: HSP90B1; type: cell-based, human; settings: HDFs, peptide 8 ppm, seven-day culture, secretome + matrisome
Method: as §5, §6, §7, §8

[8] = system: HSPA8; experiment: LC-MS/MS relative protein abundance in HDF secretome/matrisome: HSPA8; type: cell-based, human; settings: HDFs, peptide 8 ppm, seven-day culture, secretome + matrisome
Method: as §5, §6, §7, §8

[9] = system: CTSL; experiment: LC-MS/MS relative protein abundance in HDF secretome/matrisome: CTSL; type: cell-based, human; settings: HDFs, peptide 8 ppm, seven-day culture, secretome + matrisome
Method: as §5, §6, §7, §8

[10] = system: CD44; experiment: LC-MS/MS relative protein abundance in HDF secretome/matrisome: CD44; type: cell-based, human; settings: HDFs, peptide 8 ppm, seven-day culture, secretome + matrisome
Method: as §5, §6, §7, §8

[11] = system: human dermal fibroblasts; experiment: LC-MS/MS overall protein synthesis and functional protein families in HDFs (FIG. 1 bubble plot); type: cell-based; settings: peptide 8 ppm, seven-day culture
Method: as §5, §6, §7, §8
In the bubble plot, the larger the bubble size, the stronger the enhancement of proteins within that protein family.

Substance: Pal-GYIL-OH [reference compound]
Collagen I (PIP), % increase versus the negative control ([1]; peptide 5 ppm): −4%
Fibronectin, % increase versus the negative control ([2]; peptide 5 ppm): −23%
Decorin, % increase versus the negative control ([3]; peptide 5 ppm): +2%
Fibrillin-1, percentage increase in fibrillin abundance compared to untreated control ([4]; peptide 10 ppm): +3%

Substance: Pal-LSPD-OH (Palmitoyl-LSPD-OH; SMILES CCCCCCCCCCCCCCCC(=O)N[C@@H](CC(C)C)C(=O)N[C@@H](CO)C(=O)N1CCC[C@H]1C(=O)N[C@@H](CC(=O)O)C(=O)O) [N-palmitoyl tetrapeptide Leu-Ser-Pro-Asp, free C-terminus; LSXX tetrapeptide of the invention]
Collagen I (PIP), % increase versus the negative control ([1]; peptide 5 ppm): +82%
Fibronectin, % increase versus the negative control ([2]; peptide 5 ppm): +92%
Decorin, % increase versus the negative control ([3]; peptide 5 ppm): +24%
Fibrillin-1, percentage increase in fibrillin abundance compared to untreated control ([4]; peptide 4 ppm): +98%

Substance: Pal-LSPG-OH (Palmitoyl-LSPG-OH; SMILES CCCCCCCCCCCCCCCC(=O)N[C@@H](CC(C)C)C(=O)N[C@@H](CO)C(=O)N1CCC[C@H]1C(=O)NCC(=O)O) [N-palmitoyl tetrapeptide Leu-Ser-Pro-Gly, free C-terminus; LSXX tetrapeptide of the invention]
Collagen I (PIP), % increase versus the negative control ([1]; peptide 3 ppm): +25%
Fibronectin, % increase versus the negative control ([2]; peptide 3 ppm): +82%
Decorin, % increase versus the negative control ([3]; peptide 3 ppm): +39%
Fibrillin-1, percentage increase in fibrillin abundance compared to untreated control ([4]; peptide 8 ppm): +111%
SOD1 (Antioxidants) protein enhanced versus untreated control [5]: +50%
PRDX4 (Antioxidants) protein enhanced versus untreated control [6]: +362%
HSP90B1 (Cell stress) protein enhanced versus untreated control [7]: +105%
HSPA8 (Cell stress) protein enhanced versus untreated control [8]: +46%
CTSL (ECM cleaving enzymes) protein enhanced versus untreated control [9]: +107%
CD44 (ECM adhesion) protein enhanced versus untreated control [10]: +120%
overall protein synthesis / expression in comparison to the control [11]: overall enhancement of protein synthesis

More lines, main results first:

CTSL (ECM cleaving enzymes) protein enhanced versus untreated control [9]: +18%
Substance: Pal-QTAV-OH [reference compound]
SOD1 (Antioxidants) protein enhanced versus untreated control [5]: ns
PRDX4 (Antioxidants) protein enhanced versus untreated control [6]: ns
HSP90B1 (Cell stress) protein enhanced versus untreated control [7]: +30%
HSPA8 (Cell stress) protein enhanced versus untreated control [8]: +18%
CD44 (ECM adhesion) protein enhanced versus untreated control [10]: +32%
overall protein synthesis / expression in comparison to the control [11]: no or limited protein expression

CTSL (ECM cleaving enzymes) protein enhanced versus untreated control [9]: +42%
Substance: Pal-LSVD-OH (Palmitoyl-LSVD-OH; SMILES CCCCCCCCCCCCCCCC(=O)N[C@@H](CC(C)C)C(=O)N[C@@H](CO)C(=O)N[C@H](C(=O)N[C@@H](CC(=O)O)C(=O)O)C(C)C) [N-palmitoyl tetrapeptide Leu-Ser-Val-Asp, free C-terminus; LSXX tetrapeptide of the invention]
Collagen I (PIP), % increase versus the negative control ([1]; peptide 5 ppm): +29%
Fibronectin, % increase versus the negative control ([2]; peptide 5 ppm): +24%
Decorin, % increase versus the negative control ([3]; peptide 5 ppm): +131%
Fibrillin-1, percentage increase in fibrillin abundance compared to untreated control ([4]; peptide 10 ppm): +151%
SOD1 (Antioxidants) protein enhanced versus untreated control [5]: +35%
PRDX4 (Antioxidants) protein enhanced versus untreated control [6]: +120%
HSP90B1 (Cell stress) protein enhanced versus untreated control [7]: +49%
HSPA8 (Cell stress) protein enhanced versus untreated control [8]: +48%
CD44 (ECM adhesion) protein enhanced versus untreated control [10]: +57%
overall protein synthesis / expression in comparison to the control [11]: overall enhancement of protein synthesis

CTSL (ECM cleaving enzymes) protein enhanced versus untreated control [9]: ns
Substance: Pal-EKGD-OH [reference compound]
SOD1 (Antioxidants) protein enhanced versus untreated control [5]: ns
PRDX4 (Antioxidants) protein enhanced versus untreated control [6]: ns
HSP90B1 (Cell stress) protein enhanced versus untreated control [7]: ns
HSPA8 (Cell stress) protein enhanced versus untreated control [8]: ns
CD44 (ECM adhesion) protein enhanced versus untreated control [10]: +29%
overall protein synthesis / expression in comparison to the control [11]: no or limited protein expression
